pIC50: −log10 of the molar value. Calls of active or inactive are those of the source. The rule behind the calls is not given here.
Experiments:
RAW264.7 [1] = test: Antiinflammatory activity against mouse RAW 264.7 cells assessed as inhibition of LPS-induced NO production incubated for 24 hrs by Griess assay; assay type: functional, cell-based; conditions: RAW264.7, 24 h
RAW264.7 [2] = test: Cytotoxicity against mouse RAW 264.7 cells incubated for 24 hrs by MTT assay; assay type: cell-based; conditions: raw264.7, 24 h
RAW264.7 [3] = test: Antiinflammatory activity against mouse RAW 264.7 cells assessed as inhibition of LPS-induced NO production at 50 uM incubated for 24 hrs by Griess assay relative to control; assay type: functional
RAW264.7 [4] = test: Antiinflammatory activity against mouse RAW 264.7 cells assessed as inhibition of LPS-induced COX2 production at 50 uM preincubated for 1 hr followed by LPS addition measured after 16 hrs by Western blot analysis; assay type: functional, cell-based; conditions: time 17.0 hrs
RAW264.7 [5] = test: Antiinflammatory activity against mouse RAW 264.7 cells assessed as inhibition of LPS-induced iNOS production at 50 uM preincubated for 1 hr followed by LPS addition measured after 16 hrs by Western blot analysis; assay type: functional, cell-based; conditions: time 17.0 hrs
RAW264.7 [6] = test: Antiinflammatory activity against mouse RAW 264.7 cells assessed as inhibition of LPS-induced translocation into nucleus at 50 uM by preincubated for 1 hr followed by LPS addition measured after 16 hrs by immunofluorescence assay; assay type: functional, cell-based; conditions: time 17.0 hrs
RAW264.7 [7] = test: Antiinflammatory activity against mouse RAW 264.7 cells assessed as inhibition of LPS-induced IL-1alpha mRNA level at 50 uM preincubated for 1 hr followed by LPS addition measured after 16 hrs by RT-PCR analysis; assay type: functional, cell-based; conditions: time 17.0 hrs
RAW264.7 [8] = test: Antiinflammatory activity against mouse RAW 264.7 cells assessed as inhibition of LPS-induced IL-1beta mRNA level at 50 uM preincubated for 1 hr followed by LPS addition measured after 16 hrs by RT-PCR analysis; assay type: functional, cell-based; conditions: time 17.0 hrs
RAW264.7 [9] = test: Antiinflammatory activity against mouse RAW 264.7 cells assessed as inhibition of LPS-induced IL-6 mRNA level at 50 uM preincubated for 1 hr followed by LPS addition measured after 16 hrs by RT-PCR analysis; assay type: functional, cell-based; conditions: time 17.0 hrs
RAW264.7 [10] = test: Antiinflammatory activity against mouse RAW 264.7 cells assessed as inhibition of LPS-induced TNF-alpha mRNA level at 50 uM preincubated for 1 hr followed by LPS addition measured after 16 hrs by RT-PCR analysis; assay type: functional, cell-based; conditions: time 17.0 hrs
RAW264.7 [11] = test: Antiinflammatory activity against mouse RAW 264.7 cells assessed as inhibition of LPS-induced IkappaB-alpha level preincubated for 1 hr followed by LPS addition measured after 16 hrs by Western blot analysis; assay type: functional, cell-based; conditions: time 17.0 hrs
RAW264.7 [12] = test: Antiinflammatory activity against mouse RAW 264.7 cells assessed as inhibition of LPS-induced […] p-p65 level preincubated for 1 hr followed by LPS addition measured after 16 hrs by Western blot analysis; assay type: functional, cell-based; conditions: time 17.0 hrs
RAW264.7 [13] = test: Antiinflammatory activity against mouse RAW 264.7 cells assessed as inhibition of LPS-induced IL-1alpha mRNA level upto 50 uM preincubated for 1 hr followed by LPS addition measured after 16 hrs by RT-PCR analysis; assay type: functional, cell-based; conditions: dose microM <=50, time 17.0 hrs
RAW264.7 [14] = test: Antiinflammatory activity against mouse RAW 264.7 cells assessed as inhibition of LPS-induced IL-1beta mRNA level upto 50 uM preincubated for 1 hr followed by LPS addition measured after 16 hrs by RT-PCR analysis; assay type: functional, cell-based; conditions: dose microM <=50, time 17.0 hrs
RAW264.7 [15] = test: Antiinflammatory activity against mouse RAW 264.7 cells assessed as inhibition of LPS-induced IL-6 mRNA level upto 50 uM preincubated for 1 hr followed by LPS addition measured after 16 hrs by RT-PCR analysis; assay type: functional, cell-based; conditions: dose microM <=50, time 17.0 hrs
RAW264.7 [16] = test: Antiinflammatory activity against mouse RAW 264.7 cells assessed as inhibition of LPS-induced TNF-alpha mRNA level upto 50 uM preincubated for 1 hr followed by LPS addition measured after 16 hrs by RT-PCR analysis; assay type: functional, cell-based; conditions: dose microM <=50, time 17.0 hrs
RAW264.7 [17] = test: Antiinflammatory activity against mouse RAW 264.7 cells assessed as inhibition of LPS-induced COX2 production preincubated for 1 hr followed by LPS addition measured after 16 hrs by Western blot analysis; assay type: functional, cell-based; conditions: time 17.0 hrs
RAW264.7 [18] = test: Antiinflammatory activity against mouse RAW 264.7 cells assessed as inhibition of LPS-induced iNOS production preincubated for 1 hr followed by LPS addition measured after 16 hrs by Western blot analysis; assay type: functional, cell-based; conditions: time 17.0 hrs
RAW264.7 [19] = test: Antiinflammatory activity against mouse RAW 264.7 cells assessed as inhibition of LPS-induced translocation into nucleus upto 50 uM by preincubated for 1 hr followed by LPS addition measured after 16 hrs by immunofluorescence assay; assay type: functional, cell-based; conditions: dose microM <=50, time 17.0 hrs

## O=C1C[C@@H](O[C@@H]2O[C@H](CO)[C@H](O)[C@H](O)[C@H]2O)CO1
RAW264.7 [1]
  pIC50: 4.38
RAW264.7 [2]
  Activity: Non-Toxic

## C[C@@H]1O[C@@H](O[C@@H]2CNC(=O)C2)[C@H](O)[C@H](O)[C@H]1O
RAW264.7 [1]
  pIC50: 4.17

## C[C@@H]1O[C@@H](O[C@@H]2COC(=O)C2)[C@H](O)[C@H](O)[C@H]1O
RAW264.7 [1]
  pIC50: 4.22

## O=C1C[C@H](O[C@H]2O[C@H](CO)[C@@H](O)[C@H](O)[C@H]2O)CN1
RAW264.7 [1]
  pIC50: 4.09

## O=C1C[C@@H](O[C@@H]2O[C@H](CO)[C@@H](O)[C@H](O)[C@H]2O)CO1
RAW264.7 [1]
  pIC50: 4.38
RAW264.7 [2]
  Activity: Non-Toxic

## O=C1C[C@H](O[C@H]2O[C@H](CO)[C@@H](O)[C@H](O)[C@@H]2O)CN1
RAW264.7 [1]
  pIC50: 4.17

## C[C@@H]1O[C@@H](O[C@H]2COC(=O)C2)[C@H](O)[C@H](O)[C@H]1O
RAW264.7 [1]
  pIC50: 4.39
RAW264.7 [2]
  Activity: Non-Toxic

## C[C@@H]1O[C@@H](O[C@@H]2CC(=O)N(Cc3ccccc3)C2)[C@H](O)[C@H](O)[C@H]1O
RAW264.7 [1]
  pIC50: 4.25

## O=C1C[C@@H](O[C@H]2O[C@H](CO)[C@@H](O)[C@H](O)[C@@H]2O)CN1Cc1ccccc1
RAW264.7 [1]
  pIC50: 4.01

## O=C1C[C@H](O[C@H]2O[C@H](CO)[C@@H](O)[C@H](O)[C@H]2O)CO1
RAW264.7 [1]
  pIC50: 4.04

## O=C1C[C@H](O[C@H]2O[C@H](CO)[C@H](O)[C@H](O)[C@H]2O)CO1
RAW264.7 [1]
  pIC50: 4.18

## O=C1C[C@@H](O[C@H]2O[C@H](CO)[C@@H](O)[C@H](O)[C@@H]2O)CN1
RAW264.7 [1]
  pIC50: 3.97

## C[C@@H]1O[C@@H](O[C@H]2CNC(=O)C2)[C@H](O)[C@H](O)[C@H]1O
RAW264.7 [1]
  pIC50: 3.94

## O=C1C[C@@H](O[C@H]2O[C@H](CO)[C@@H](O)[C@H](O)[C@H]2O)CN1
RAW264.7 [1]
  pIC50: 4.05

## O=C(NO)c1ccc(O)c(O)c1
RAW264.7 [3]
  inhibition at 50 µM: 70%
RAW264.7 [4]
  inhibition: Active
RAW264.7 [5]
  inhibition: Active
RAW264.7 [6]
  inhibition: Active
RAW264.7 [7]
  inhibition: Active
RAW264.7 [8]
  inhibition: Active
RAW264.7 [9]
  inhibition: Active
RAW264.7 [10]
  inhibition: Active

## O=C1C[C@H](O[C@H]2O[C@H](CO)[C@@H](O)[C@H](O)[C@@H]2O)CO1
RAW264.7 [1]
  pIC50: 4.41
RAW264.7 [2]
  Activity: Non-Toxic

## O=C1C[C@@H](O[C@H]2O[C@H](CO)[C@@H](O)[C@H](O)[C@H]2O)CN1Cc1ccccc1
RAW264.7 [1]
  pIC50: 4.14

## C[C@@H]1O[C@@H](O[C@H]2CC(=O)N(Cc3ccccc3)C2)[C@H](O)[C@H](O)[C@H]1O
RAW264.7 [1]
  pIC50: 4.16

## O=C1C[C@H](O[C@H]2O[C@H](CO)[C@@H](O)[C@H](O)[C@H]2O)CN1Cc1ccccc1
RAW264.7 [1]
  pIC50: 3.98

## O=C1C[C@H](O[C@@H]2O[C@H](CO)[C@@H](O)[C@H](O)[C@H]2O)CO1 [GOODYEROSIDE]
RAW264.7 [11]
  inhibition: Active
RAW264.7 [12]
  inhibition: Active
RAW264.7 [1]
  pIC50: 4.55
RAW264.7 [2]
  Activity: Non-Toxic
RAW264.7 [13]
  inhibition: Active
RAW264.7 [14]
  inhibition: Active
RAW264.7 [15]
  inhibition: Active
RAW264.7 [16]
  inhibition: Active
RAW264.7 [17]
  inhibition: Dose-dependent effect
RAW264.7 [18]
  inhibition: Dose-dependent effect
RAW264.7 [19]
  inhibition: Active

## O=C1C[C@@H](O[C@H]2O[C@H](CO)[C@@H](O)[C@H](O)[C@@H]2O)CO1
RAW264.7 [1]
  pIC50: 4.37
RAW264.7 [2]
  Activity: Non-Toxic

## O=C1C[C@H](O[C@H]2O[C@H](CO)[C@@H](O)[C@H](O)[C@@H]2O)CN1Cc1ccccc1
RAW264.7 [1]
  pIC50: 4.19

Reference: ChEMBL document CHEMBL4680294, “Synthesis of nature product kinsenoside analogues with anti-inflammatory activity” (Bioorg Med Chem, 2021)
